Experimental data published in US12492188B2, “1H-benzo[D]imidazole derivatives as TLR9 inhibitors for the treatment of fibrosis” (BRISTOL-MYERS SQUIBB COMPANY, priority 2020, dated 2025).
Read-outs that look alike come from different tables or passages of the source.

Biological target: T1, human TLR9 (Homo sapiens, UniProt Q9NR96)
T1 construct: host or cells: HEK-Blue cells (HEK293-derived reporter line)
T1 sequence (Q9NR96 26-1032): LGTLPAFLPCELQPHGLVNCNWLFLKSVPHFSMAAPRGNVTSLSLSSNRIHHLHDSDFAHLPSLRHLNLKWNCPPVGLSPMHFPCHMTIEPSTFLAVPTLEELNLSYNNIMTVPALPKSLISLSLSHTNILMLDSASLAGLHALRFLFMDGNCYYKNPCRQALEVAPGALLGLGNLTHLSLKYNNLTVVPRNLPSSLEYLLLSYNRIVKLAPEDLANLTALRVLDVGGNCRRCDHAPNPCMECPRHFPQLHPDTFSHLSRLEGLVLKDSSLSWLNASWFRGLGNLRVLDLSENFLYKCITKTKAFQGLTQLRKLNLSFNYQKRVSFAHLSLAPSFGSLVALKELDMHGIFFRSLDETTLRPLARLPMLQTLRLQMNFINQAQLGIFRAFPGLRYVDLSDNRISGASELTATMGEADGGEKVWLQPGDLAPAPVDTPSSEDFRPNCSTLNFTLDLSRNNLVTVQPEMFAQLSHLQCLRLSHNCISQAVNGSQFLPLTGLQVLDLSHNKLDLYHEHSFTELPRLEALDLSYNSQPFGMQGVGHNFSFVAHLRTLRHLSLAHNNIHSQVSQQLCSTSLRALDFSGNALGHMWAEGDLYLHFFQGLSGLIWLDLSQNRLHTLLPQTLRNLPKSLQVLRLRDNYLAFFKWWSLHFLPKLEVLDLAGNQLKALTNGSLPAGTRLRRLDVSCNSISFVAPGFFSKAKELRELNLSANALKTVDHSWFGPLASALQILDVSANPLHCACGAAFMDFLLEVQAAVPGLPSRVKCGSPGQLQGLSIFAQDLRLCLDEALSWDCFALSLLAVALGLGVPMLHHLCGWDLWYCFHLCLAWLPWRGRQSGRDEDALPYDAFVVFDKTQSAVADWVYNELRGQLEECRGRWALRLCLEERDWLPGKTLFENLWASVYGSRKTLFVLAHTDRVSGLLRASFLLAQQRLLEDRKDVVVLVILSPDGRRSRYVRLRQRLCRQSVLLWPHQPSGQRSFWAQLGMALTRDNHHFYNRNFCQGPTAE
Test: TLR9 inhibition reporter assay (HEK-Blue cells, secreted embryonic alkaline phosphatase reporter)
Assay type: cell-based
Procedure: TLR7/8/9 Inhibition Reporter Assays
HEK-Blue™-cells (Invivogen) overexpressing human TLR7, TLR8 or TLR9 receptors were used for screening inhibitors of these receptors using an inducible SLAP (secreted embryonic alkaline phosphatase) reporter gene under the control of the […] minimal promoter fused to five NF-κB and AP-1-binding sites. Briefly, cells are seeded into Greiner 384 well plates (15000 cells per well for TLR7, 20,000 for TLR8 and 25,000 for TLR9) and then treated with test compounds in DMSO to yield a final dose response concentration range of 0.05 nM-50 μM. After a 30 minute compound pre-treatment at room temperature, the cells are then stimulated with a TLR7 ligand (gardiquimod at a final concentration of 7.5 μM), TLR8 ligand (R848 at a final concentration of 15.9 μM) or TLR9 ligand (ODN2006 at a final concentration of 5 nM) to activate NF-κB and AP-1 which induce the production of SLAP. After a 22 hour incubation at 37° C., […], SLAP levels are determined with the addition of HEK-Blue™ Detection reagent (Invivogen), a cell culture medium that allows for detection of SLAP, according to manufacturer's specifications. The percent inhibition is determined as the […] in the HEK-Blue signal present in wells treated with agonist plus DMSO alone compared to wells treated with a known inhibitor.

[1] = HEK-Blue cells overexpressing human TLR9, stimulated with ODN2006 5 nM, read-out: TLR 9 IC50
[2] = HEK-Blue human TLR9 reporter cells

Row | Structure (SMILES) | IC50 [nM] | IC50 [1] [nM] | IC50 [2] [nM]
1 | Cc1cc(C2CCN(C3CC4(C3)CN(C3CCC3)C4)CC2)cc2c1nc(-c1ccc(S(C)(=O)=O)cc1)n2C [Example 140, 6-(1-(2-cyclobutyl-2-azaspiro[3.3]heptan-6-yl)piperidin-4-yl)-1,4-dimethyl-2-(4-(methylsulfonyl)phenyl)-1H-benzo[d]imidazole] | 290 | 290 | –
2 | Cc1cc(C2CCN(C3CC4(C3)CN(CC(C)C)C4)CC2)cc2c1nc(-c1ccc(S(C)(=O)=O)cc1)n2C [Example 141, 6-(1-(2-isobutyl-2-azaspiro[3.3]heptan-6-yl)piperidin-4-yl)-1,4-dimethyl-2-(4-(methylsulfonyl)phenyl)-1H-benzo[d]imidazole] | 250 | 248 | –
3 | Cc1cc(C2CCN(C3CC4(C3)CN(CC3CC3)C4)CC2)cc2c1nc(-c1ccc(S(C)(=O)=O)cc1)n2C [Example 142, 6-(1-(2-(cyclopropylmethyl)-2-azaspiro[3.3]heptan-6-yl)piperidin-4-yl)-1,4-dimethyl-2-(4-(methylsulfonyl)phenyl)-1H-benzo[d]imidazole] | 68 | 68 | –
4 | Cc1cc(C2CCN(C3CC4(C3)CN(CC3CCC3)C4)CC2)cc2c1nc(-c1ccc(S(C)(=O)=O)cc1)n2C [Example 143, 6-(1-(2-(cyclobutylmethyl)-2-azaspiro[3.3]heptan-6-yl)piperidin-4-yl)-1,4-dimethyl-2-(4-(methylsulfonyl)phenyl)-1H-benzo[d]imidazole] | 85 | 85 | –
5 | COc1ccc(-c2nc3c(C)cc(C4CCN(C5CC6CCC(C5)N6C(C)C)CC4)cc3n2C)cc1OC (stereo not drawn) [Example 144, 2-(3,4-dimethoxyphenyl)-6-(1-(8-isopropyl-8-azabicyclo[3.2.1]octan-3-yl)piperidin-4-yl)-1,4-dimethyl-1H-benzo[d]imidazole] | 62 | 62 | –
6 | COc1ccc(-c2nc3c(C)cc(C4CCN(C5CC6CCC(C5)N6C(C)C)CC4)cc3n2C)cc1OC (stereo not drawn) [Example 145, 2-(3,4-dimethoxyphenyl)-6-(1-(8-isopropyl-8-azabicyclo[3.2.1]octan-3-yl)piperidin-4-yl)-1,4-dimethyl-1H-benzo[d]imidazole] | 24 | 24 | –
7 | COc1ccc(-c2nc3c(C)cc(C4CCN(C5CC6CCC(C5)N6C5CCC5)CC4)cc3n2C)cc1OC (stereo not drawn) [Example 146, 6-(1-(8-cyclobutyl-8-azabicyclo[3.2.1]octan-3-yl)piperidin-4-yl)-2-(3,4-dimethoxyphenyl)-1,4-dimethyl-1H-benzo[d]imidazole] | 70 | 70 | –
8 | COc1ccc(-c2nc3c(C)cc(C4CCN(C5CC6CCC(C5)N6C5CCC5)CC4)cc3n2C)cc1OC (stereo not drawn) [Example 147, 6-(1-(8-cyclobutyl-8-azabicyclo[3.2.1]octan-3-yl)piperidin-4-yl)-2-(3,4-dimethoxyphenyl)-1,4-dimethyl-1H-benzo[d]imidazole] | 200 | 199 | –
9 | COc1ccc(-c2nc3c(C)cc(C4CCN(C5CC6CCC(C5)N6CC5CC5)CC4)cc3n2C)cc1OC (stereo not drawn) [Example 148, 6-(1-(8-(cyclopropylmethyl)-8-azabicyclo[3.2.1]octan-3-yl)piperidin-4-yl)-2-(3,4-dimethoxyphenyl)-1,4-dimethyl-1H-benzo[d]imidazole] | 34 | 34 | –
10 | COc1ccc(-c2nc3c(C)cc(C4CCN(C5CC6CCC(C5)N6CC5CC5)CC4)cc3n2C)cc1OC (stereo not drawn) [Example 149, 6-(1-(8-(cyclopropylmethyl)-8-azabicyclo[3.2.1]octan-3-yl)piperidin-4-yl)-2-(3,4-dimethoxyphenyl)-1,4-dimethyl-1H-benzo[d]imidazole] | 47 | 47 | –
11 | Cc1cc(-c2ccc(N3CCN(CC(C)C)CC3)cc2)cc2c1nc(-c1ccc(S(C)(=O)=O)cc1)n2C [Example 170, 6-(4-(4-isobutylpiperazin-1-yl)phenyl)-1,4-dimethyl-2-(4-(methylsulfonyl)phenyl)-1H-benzo[d]imidazole] | 4400 | 4440 | –
12 | Cc1cc(-c2ccc(N3CCN(CC4CC4)CC3)cc2)cc2c1nc(-c1ccc(S(C)(=O)=O)cc1)n2C [Example 171, 6-(4-(4-(cyclopropylmethyl)piperazin-1-yl)phenyl)-1,4-dimethyl-2-(4-(methylsulfonyl)phenyl)-1H-benzo[d]imidazole] | 650 | 653 | –
13 | Cc1cc(-c2ccc(N3CCN(CC4CCC4)CC3)cc2)cc2c1nc(-c1ccc(S(C)(=O)=O)cc1)n2C [Example 172, 6-(4-(4-(cyclobutylmethyl)piperazin-1-yl)phenyl)-1,4-dimethyl-2-(4-(methylsulfonyl)phenyl)-1H-benzo[d]imidazole] | 1800 | 1780 | –
14 | COCCN1CCN(c2ccc(-c3cc(C)c4nc(-c5ccc(S(C)(=O)=O)cc5)n(C)c4c3)cc2)CC1 [Example 173, 6-(4-(4-(2-methoxyethyl)piperazin-1-yl)phenyl)-1,4-dimethyl-2-(4-(methylsulfonyl)phenyl)-1H-benzo[d]imidazole] | 1100 | 1110 | –
15 | COc1ccc(-c2nc3ccc(C4CCN(C5CCN(C6CC6)CC5)CC4)c(F)c3[nH]2)cc1OC [Example 175, 6-(1′-cyclopropyl-[1,4′-bipiperidin]-4-yl)-2-(3,4-dimethoxyphenyl)-7-fluoro-1H-benzo[d]imidazole] | 530 | 527 | –
16 | Cc1cc(-c2ccc(N3CCN(C4CCOCC4)CC3)cc2)cc2c1nc(-c1ccc(S(C)(=O)=O)cc1)n2C [Example 176, 1,4-dimethyl-2-(4-(methylsulfonyl)phenyl)-6-(4-(4-(tetrahydro-2H-pyran-4-yl)piperazin-1-yl)phenyl)-1H-benzo[d]imidazole] | 680 | 680 | –
17 | CS(=O)(=O)c1ccc(-c2nc3c(F)cc(C4CCN(C5CCN(CC6CC6)CC5)CC4)cc3n2C2CC2)cc1 [Example 320, 1-cyclopropyl-6-(1′-(cyclopropylmethyl)-[1,4′-bipiperidin]-4-yl)-4-fluoro-2-(4-(methylsulfonyl)phenyl)-1H-benzo[d]imidazole] | – | 77 | 77
18 | Cc1c(C2CCN(C3CCN(CC(C)C)CC3)CC2)ccc2nc(-c3ccc(S(C)(=O)=O)cc3)n(C)c12 [Example 330, 6-(1′-isobutyl-[1,4′-bipiperidin]-4-yl)-1,7-dimethyl-2-(4-(methylsulfonyl)phenyl)-1H-benzo[d]imidazole] | – | 1390 | 1400
19 | Cc1cc2nc(-c3ccc(S(C)(=O)=O)cc3)n(C)c2cc1C1CCN(C2CCN(CC(C)C)CC2)CC1 [Example 331, 6-(1′-isobutyl-[1,4′-bipiperidin]-4-yl)-1,5-dimethyl-2-(4-(methylsulfonyl)phenyl)-1H-benzo[d]imidazole] | – | 143 | 140
20 | Cc1cc(C2CCN(C3CC4CCC(C3)N4CC3CC3)CC2)cc2c1nc(-c1ccc(S(C)(=O)=O)c(F)c1)n2C (stereo not drawn) [Example 340, 6-(1-(8-(cyclopropylmethyl)-8-azabicyclo[3.2.1]octan-3-yl)piperidin-4-yl)-2-(3-fluoro-4-(methylsulfonyl)phenyl)-1,4-dimethyl-1H-benzo[d]imidazole] | – | 84 | 84
21 | Cc1cc(C2CCN(C3CC4CCC(C3)N4C3CC3)CC2)cc2c1nc(-c1ccc(S(C)(=O)=O)c(F)c1)n2C (stereo not drawn) [Example 345, 6-(1-(8-cyclopropyl-8-azabicyclo[3.2.1]octan-3-yl)piperidin-4-yl)-2-(3-fluoro-4-(methylsulfonyl)phenyl)-1,4-dimethyl-1H-benzo[d]imidazole] | – | 132 | 130
